# Results from patent publication US11883383B2, “Pharmaceutically acceptable salts of [3-(4- {2-butyl-1-[4-(4-chloro-phenoxy)-phenyl]-1H-imidazol-4-yl} -phenoxy)-propyl]-diethyl-amine” (vTv Therapeutics LLC, priority 2018, dated 2024).
# Test: Salt/co-crystal screening: 38 acids, eight solvent systems, solids analysed by XRPD
# Assay type: physicochemical
# Details: acid/freebase charge 1:1 unless label says 2:1, stirred at RT, else 5° C. slurry, anti-solvent addition or evaporation (footnote marks)
# Procedure: XRPD analysis was performed with a Panalytical X'Pert^3 Powder XRPD on a Si zero-background holder. The 2θ position was calibrated against Panalytical Si reference standard disc.
# A total of 320 salt/co-crystal screening experiments were conducted using 38 acids (two molar ratios for HCl and HBr) and eight solvent systems. Specifically, freebase stock solutions of ˜100 mg/mL were first prepared in each solvent system. For each experiment, 0.2 mL stock solution and the corresponding acids were mixed in a molar charge ratio of 1:1 (acid/freebase, 2:1 for HCl/freebase and HBr/freebase as well), and then stirred at RT. After stirring for 3-5 days, if precipitation was observed, the precipitate was isolated. It no precipitation, the clear solutions were first transferred to slurry at 5° C. to introduce precipitation. Solutions without any precipitation were further subjected to anti-solvent addition (for solvents in column B/D, 0.5 mL hexane was added; for solvents in column G/H, 0.5 mL water was added; for solvent in column F, 0.5 mL n-heptane was added). If still no precipitation, the final clear solutions were transferred to evaporation at RT to induce precipitation. All solids isolated were vacuum dried at RT for 2 hrs before XRPD analysis.
Compound,"Solid obtained in salt screening (XRPD), solvent D Acetone/Hexane (1:2, v/v)","Solid obtained in salt screening (XRPD), solvent H Dioxane/H2O (9:1, v/v)","Solid obtained in salt screening (XRPD), solvent A Ethanol","Solid obtained in salt screening (XRPD), solvent B Ethyl acetate/Hexane (1:2, v/v)","Solid obtained in salt screening (XRPD), solvent G Methanol/H2O (19:1, v/v)","Solid obtained in salt screening (XRPD), solvent F Methyl tertbutyl ether","Solid obtained in salt screening (XRPD), solvent C THF","Solid obtained in salt screening (XRPD), solvent E Toluene"
C[C@H](O)C(=O)O [L-lactic acid],gel,amorphous*,amorphous*,gel*,amorphous*,gel,gel,gel*
O=C(O)c1ccccc1 [Benzoic acid],gel*,amorphous*,gel*,gel*,amorphous*,amorphous*,gel*,gel*
O=C(O)CNC(=O)c1ccccc1 [Hippuric acid],amorphous*,amorphous*,gel*,–,amorphous*,–,gel*,gel*
O=C(O)[C@H](O)[C@@H](O)[C@H](O)[C@H](O)CO [Gluconic acid],amorphous^&,amorphous*,amorphous*,gel*,amorphous*,amorphous,amorphous*,gel
Br.CCCCc1nc(-c2ccc(OCCCN(CC)CC)cc2)cn1-c1ccc(Oc2ccc(Cl)cc2)cc1 [HBr (1:1)],–,gel*,–,–,–,–,–,–
CCCCCC(=O)O [Hexanoic acid],gel*,FB Type A*,gel,gel*,amorphous*,FB Type B^&,gel,gel
O=C1NS(=O)(=O)c2ccccc21 [Saccharin],gel,amorphous*,amorphous*,–,–,–,gel,gel
N[C@@H](CCC(=O)O)C(=O)O [Glutamic acid],–,glutamic acid,glutamic acid,–,–,glutamic acid,–,–
Nc1ccc(C(=O)O)c(O)c1 [4-Aminosalicylic acid],gel,gel,gel*,–,–,–,gel,gel

# The next lines start with the values.
"Solid obtained in salt screening (XRPD), solvent D Acetone/Hexane (1:2, v/v)","Solid obtained in salt screening (XRPD), solvent H Dioxane/H2O (9:1, v/v)","Solid obtained in salt screening (XRPD), solvent A Ethanol","Solid obtained in salt screening (XRPD), solvent B Ethyl acetate/Hexane (1:2, v/v)","Solid obtained in salt screening (XRPD), solvent G Methanol/H2O (19:1, v/v)","Solid obtained in salt screening (XRPD), solvent F Methyl tertbutyl ether","Solid obtained in salt screening (XRPD), solvent C THF","Solid obtained in salt screening (XRPD), solvent E Toluene",Compound
gel*,FB Type A^&,gel*,gel*,amorphous^&,amorphous*,gel,gel,COc1cc(C=O)ccc1O [Vanillin]
gel,gel*,gel*,–,gel*,amorphous,gel,gel*,CS(=O)(=O)O [Methane sulfonic acid]
gel*,gel*,gel*,gel*,FB Type A^&,gel*,gel*,gel*,CCCCCCCCCCCCCCCC(=O)O [Palmitic acid]
–,amorphous*,gel*,nicotinic acid,amorphous*,nicotinic acid,gel*,–,O=C(O)c1cccnc1 [Nicotinic acid]
amorphous*,amorphous*,gel*,amorphous*,amorphous*,FB Type B*,gel*,gel*,O=C(O)CCC(=O)O [Succnic acid]
gel*,amorphous*,gel*,FB Type A,FB Type A^&,FB Type B*,gel*,gel*,CCC(=O)O [Propionic acid]
gel,amorphous*,amorphous*,gel*,amorphous*,gel,gel,gel,O=C(O)[C@H](O)c1ccccc1 [R-mandelic acid]
–,amorphous*,gel*,–,amorphous*,–,gel*,gel*,O=C(O)/C=C\C(=O)O [Maleic acid]
–,amorphous^&,–,–,–,FB Type A*,–,–,CCCCCCCCCCCCCCCCCC(=O)O [Stearic acid]
